Patent US20030073699A1, “Compounds and methods to treat cardiac failure and other disorders” (priority 1998, published 2003)

Tests used:
Format in all cases: biochemical
[1] = target: p38α (Homo sapiens, UniProt Q16539); experiment: p38 kinase inhibition assay, activity for p38α; conditions: for IC50: inhibition of p38α, based on IC50 curves; for Fold increase Piperidinyl/Piperazinyl: p38α potency of piperidinyl versus corresponding piperazinyl compound
[2] = target: p38 kinase (Homo sapiens, UniProt Q16539); experiment: Assay for p38 kinase inhibition (Example 19); conditions: tested as described in Example 19
Procedure: (§1) The compounds to be tested were solubilized in DMSO and diluted into water to the desired concentrations. The p38 kinase was diluted to 10 μg/ml into a buffer containing 20 mM MOPS, pH 7.0,25 mM beta-glycerol phosphate, 2 mg/ml gelatin; 0.5 mM EGTA, and 4 mM DTT.
(§2) The reaction was carried out by mixing 20 μl test compound with 10 μl of a substrate cocktail containing 500 μg/ml peptide substrate and 0.2 mM ATP (+200 μCi/ml gamma-32P-ATP) in a 4× assay buffer. The reaction was initiated by the addition of 10 μl of p38 kinase. […] After a 40 minute incubation at room temperature, the reaction was stopped by the addition of 10 μl per reaction of 0.25 M phosphoric acid.
A portion of the reaction was spotted onto a disk of P81 phosphocellulose paper, the filters were dried for 2 minutes and then washed 4× in 75 mM H3PO4. The filters were rinsed briefly in 95% ethanol, dried, then placed in scintillation vials with liquid scintillation cocktail. […]
Counts incorporated are determined on a scintillation counter. Relative enzyme activity is calculated by subtracting background counts (counts measured in the absence of enzyme) from each result, and comparing the resulting counts to those obtained in the absence of inhibitor. IC50 values were determined with curve-fitting plots available with common software packages. Approximate IC50 values were calculated using formula […]

[3] = target: p38β (Homo sapiens, UniProt Q15759); experiment: p38 kinase inhibition assay, specificity versus p38β; conditions: for IC50: read-out: P38-β IC50; for IC50 ratio β/α: specificity for p38α as compared to p38β
Procedure: as §1, §2
A portion of the reaction was spotted onto a disk of P81 phosphocellulose paper, the filters were dried for 2 minutes and then washed 4× in 75 mM H3PO4. The filters were rinsed briefly in 95% ethanol, dried, then placed in scintillation vials with liquid scintillation cocktail.
Alternatively, the substrate is previously biotinylated and the resulting reactions are spotted on SAM^2™ streptavidin filter squares (Promega). The filters are washed 4× in 2M NaCl, 4× in 2M NaCl with 1% phosphoric acid, 2× in water, and briefly in 95% ethanol. The filter squares are dried and placed in scintillation vials with liquid scintillation cocktail.
Counts incorporated are determined on a scintillation counter. Relative enzyme activity is calculated by subtracting background counts (counts measured in the absence of enzyme) from each result, and comparing the resulting counts to those obtained in the absence of inhibitor. IC50 values were determined with curve-fitting plots available with common software packages. Approximate IC50 values were calculated using formula
where A=fractional activity and i=total inhibitor concentration.
The compounds of the invention as well as those containing piperazine, generally, are specific for p38α as compared to p38β. […] It is seen that the specificity for α as opposed to β is generally of the order of ten-fold.

Sequence of p38α (Q16539 whole entry): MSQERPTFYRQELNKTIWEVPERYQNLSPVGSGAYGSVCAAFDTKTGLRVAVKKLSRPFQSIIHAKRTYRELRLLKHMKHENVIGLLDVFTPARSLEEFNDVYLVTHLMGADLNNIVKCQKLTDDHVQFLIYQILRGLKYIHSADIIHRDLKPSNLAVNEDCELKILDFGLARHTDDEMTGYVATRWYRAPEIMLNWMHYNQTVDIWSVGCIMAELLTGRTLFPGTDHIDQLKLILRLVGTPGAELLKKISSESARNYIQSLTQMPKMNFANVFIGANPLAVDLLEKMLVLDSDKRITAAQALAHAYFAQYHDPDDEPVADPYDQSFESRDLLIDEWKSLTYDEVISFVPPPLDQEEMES
Sequence of p38β (Q15759 whole entry): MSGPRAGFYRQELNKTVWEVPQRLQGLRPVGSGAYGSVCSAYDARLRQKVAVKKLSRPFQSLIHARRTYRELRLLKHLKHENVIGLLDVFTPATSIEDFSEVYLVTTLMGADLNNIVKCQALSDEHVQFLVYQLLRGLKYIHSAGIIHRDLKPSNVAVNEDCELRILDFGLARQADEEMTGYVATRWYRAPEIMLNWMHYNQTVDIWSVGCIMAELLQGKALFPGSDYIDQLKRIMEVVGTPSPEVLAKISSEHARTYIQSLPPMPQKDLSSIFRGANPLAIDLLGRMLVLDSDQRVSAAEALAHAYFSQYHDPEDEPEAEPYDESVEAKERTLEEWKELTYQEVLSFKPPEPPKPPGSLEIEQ
Sequence of p38 kinase (Q16539 whole entry): as the sequence (Q16539 whole entry) above

IC50 [1] [µM] | IC50 [2] [µM] | IC50 [3] [µM] | IC50 ratio β/α [3] | Molecule | Fold increase Piperidinyl/Piperazinyl [1]
 | 0.28 |  |  | CC1CC(Cc2ccccc2)CCN1C(=O)c1ccc2[nH]ccc2c1 (stereo not shown) [Example 18] | 
4.74 |  | 34 | 7.17 | O=C(c1c[nH]c2ccccc12)N1CCN(Cc2ccccc2)CC1 [Piperazinyl 3, reference compound] | 
1.54 |  | 24 | 15.6 | O=C(c1cccc2[nH]ccc12)N1CCN(Cc2ccccc2)CC1 [Piperazinyl 4, reference compound] | 
 |  | 25.8 | 15.1 | O=C(c1ccc2[nH]ccc2c1)N1CCN(Cc2ccccc2)CC1 [Piperazinyl 5] | 
5.52 |  | 39.1 | 7.08 | O=C(c1ccc2cc[nH]c2c1)N1CCN(Cc2ccccc2)CC1 [Piperazinyl 6] | 
> 30 |  |  |  | O=C(c1cccc2cc[nH]c12)N1CCN(Cc2ccccc2)CC1 [Piperazinyl 7] | 
2.66 |  |  |  | O=C(c1cc2ccccc2[nH]1)N1CCC(Cc2ccccc2)CC1 [Piperidinyl 2] | 
0.159 |  | 2.43 | 15.3 | O=C(c1cccc2[nH]ccc12)N1CCC(Cc2ccccc2)CC1 [Piperidinyl 4, 4-benzylpiperidinyl-indoie-4-carboxamide] | 9.7
0.15 |  | 3.02 |  | O=C(c1ccc2[nH]ccc2c1)N1CCC(Cc2ccccc2)CC1 [Piperidinyl 5, 4-benzylpiperidinyl-indole-5-carboxamide] | 

Molecule | IC50 [1] [µM] | IC50 [2] [µM] | IC50 [3] [µM] | IC50 ratio β/α [3] | Fold increase Piperidinyl/Piperazinyl [1]
4-(4-benzyl piperazinyl)-indole-2-carboxamide [Piperazinyl 2] | > 30 |  |  |  | 
O=C(c1c[nH]c2ccccc12)N1CCC(Cc2ccccc2)CC1 [Piperidinyl 3] | 0.163 |  | 1.77 | 10.9 | 29.1
O=C(c1ccc2cc[nH]c2c1)N1CCC(Cc2ccccc2)CC1 [Piperidinyl 6, 4-benzylpiperidinyl-indole-6-carboxamide] |  |  | 3.83 |  | 
O=C(c1cccc2cc[nH]c12)N1CCC(Cc2ccccc2)CC1 [Piperidinyl 7] | 7.04 |  |  |  | >4.3
